Assay results published in patent US5604227A, “Pyridazinedione compounds useful in treating neurological disorders” (Imperial Chemical Industries PLC, priority 1991, dated 1997).
Like-named read-outs stand apart in the source and are kept apart here.

Assays:
[1] = test system: NMDA receptor; details: reference antagonists, general statement; cited from earlier work
[2] = biological target: glycine receptor of the NMDA receptor complex; experiment: [3H]-glycine binding assay (Test A); set-up: species or system rat (Sprague-Dawley); details: [3H]-glycine 20 nM, rat cortex/hippocampus membranes, pH 7.1, 30 min, 4° C.
Excerpt: (§1) The actions of compounds according to the invention as antagonists at the glycine receptor of the NMDA receptor complex can be shown by one or more standard tests such as the [^3 H]-glycine binding assay (Test A), by functional assays in vitro such as tests for measuring glutamate-evoked contractions of the guinea pig ileum (Test B) and/or tests for measuring antagonism of NMDA-induced evoked response in hippocampal slices (Test C), and by tests in vivo such as ischemia induced by carotid occlusion in the gerbil model (Test D).
In the [^3 H]-glycine binding assay, neuronal synaptic membranes are prepared from adult (about 250 g) male Sprague-Dawley rats. Freshly dissected cortices and hippocampi are homogenized in 0.32M sucrose (110 mg/mL). Synaptosomes are isolated by centrifugation (1000 xg, 10 min), the supernatant is pelleted (20,000 xg, 20 min) and resuspended in double-distilled water. The suspension was centrifuged for 20 minutes at 8,000 xg. The resulting […] and bully coat are washed twice (48,000 xg, 10 mins, resuspension in double-deionized water). The final pellet is quickly frozen (dry ice/ethanol bath) under double-deionized water and stored at -70° C.
On the day of the experiment, thawed synaptic membranes are homogenized with a Brinkmann Polytron (tm, Brinkmann Instruments, Westbury, N.Y.) tissue homogenizer in 50 millimolar tris(hydroxymethyl)aminomethane citrate, pH 7.1. The membranes are incubated with 0.04% Sufact-AMPS X100 (tm, Pierce, Rockford, Ill.) in buffer for 20 minutes at 37° C. and washed six times by centrifugation (48,000 xg, 10 min) and resuspended in buffer. The final pellet is homogenized at 200 mg wet weight/mL of the buffer for the binding assay.
For [^3 H]-glycine binding at the N-methyl-D-aspartate receptor, 20 nanomolar [^3 H]-glycine (40-60 Ci/mmol, New England Nuclear, Boston, Mass.) is incubated with the membranes suspended in 50 millimolar tris (hydroxymethyl)aminomethane citrate, pH 7.1 for 30 minutes at 4° C. […] Radioactivity is estimated by liquid scintillation counting. […]

[3] = test system: neuronal damage in the hippocampus; experiment: gerbil ischemic model, bilateral carotid occlusion (Test D); assay type: in vivo, Mongolian gerbils; details: 10 mg/Kg ip, pre- and post-occlusion (e.g. 45 min before and 5 min after)
Excerpt: as §1
When testing in vivo using the gerbil ischemic model, adult female Mongolian gerbils (50-70 g) are anesthetized with 2 to 3 % halothane. The bilateral common carotid arteries at the neck are exposed and occluded with microaneurysm clips. After 10 min (unless specified), the clips are removed and the blood flow through the carotid arteries is restored and the skin is sutured. Test compounds are administered intraperitoneally both pre- and post-occlusion, for example 45 minutes before and 5 minutes after occlusion of the carotid arteries. Sham-operated animals are treated in the same manner except that the arteries are not clamped. Gross behavioral observations along with motor activity are recorded for 2 hr on the first (24 hr) day following the occlusion. After 4 days, subjects are sacrificed (decapitation), brains are removed, fixed, sectioned and stained with hematoxylin/eosin and cresyl violet.
The brain sections are rated for neuronal damage in the hippocampus using the following rating scale:
1=slight damage (up to 25%)--restricted to CA1/subiculum border
2=moderate damage (up to 50%)--obvious damage, restricted to less than half of CA1 field
3=marked damage (up to 75%)--involving greater than half of CA1 field
4=damage extending beyond CA1 field
Sections (7 micron) are evaluated from each brain. […] The average brain damage rating score for each group is recorded, and the damage scores of the drug treated group are compared to the vehicle-treated group using Wilcoxon-Rank Sum test. […]

[4] = biological target: glycine receptor of the NMDA receptor complex (Cavia porcellus, UniProt A0A286XML8); experiment: glutamate-evoked contractions of the guinea pig ileum (Test B); assay type: cell-based; details: 100 micromolar glutamate-evoked contractions, compound 5 min before glutamate
Excerpt: as §1
For glutamate-evoked contractions of the guinea pig ileum, the methodology is as described previously (Luzzi et. al., Br. J. Pharmacol., 95, 1271-1277 (1989)). The longitudinal muscle and associated myenteric plexus are removed and placed in oxygenated modified Krebs-Henseleit solution (118 millimolar NaCl, 4.7 millimolar KCl, 2.5 millimolar CaCl, 1.2 millimolar KH2 PO4, 25 millimolar NaHCO3, and 11 millimolar glucose). Tissues are suspended on glass rods in organ baths under a resting tension of 0.5 g. After an initial depolarization with 80 millimolar potassium ion to remove possible blockade of the NMDA receptor channel complex with magnesium, twitch responses are evoked with 100 micromolar glutamate. Isometric mechanical responses are recorded. Tissues are equilibrated for at least 2 hours prior to addition of compounds.
A dose response curve for the effect of the unknown on the magnitude of the glutamate-evoked contractions is generated. Glutamate-evoked contractions are generated at 20 minute intervals, with the test compound added 5 minutes before the glutamate. The magnitude of the contraction with each dose of the unknown is expressed relative to the control, the third contraction evoked by 100 micromolar glutamate alone in the same tissue bath. The IC50 is obtained from a least-squares regression of a logit-log transformation of the data.
After the last contraction for the dose-response curve, 100 micromolar glycine is added to the bath 10 minutes after the previous addition of glutamate. […]

[5] = test system: NMDA receptor; experiment: hippocampal slice test (HST), antagonism of NMDA-induced evoked response (Test C); assay type: cell-based, rat (Sprague-Dawley); details: 5 μM, 0 Mg++
Excerpt: as §1
The characterization of a compound as a glycine antagonist in the hippocampal slice test (HST) is dependent on (1) the ability of the compound to inhibit NMDA receptor-mediated synaptic transmission in hippocampal slices and (2) the subsequent reversal of these inhibitory effects by D-serine.
The procedure for the HST is as follows. Transverse hippocampal slices are obtained from male Sprague-Dawley rats weighting 80-150 gm. […]
For the electrophysiology part of the experiments, bipolar tungsten stimulating electrodes are positioned in the stratum radiatum of the CA3 cell body region of the hippocampus and a single-barrel glass microelectrode filled with Krebs-Ringer solution is positioned in the CA1 cell body region. Low frequency stimulation is then applied to area CA3 which evokes a primary population spike (PS) recorded from CA1. […]

Structure (SMILES) | reversal of the inhibition by D-serine [1] | IC50 [2] [µM] | neuroprotection (relative to sham-operated control) [3] | IC50 [4] [µM] | other results
NC(CCCP(=O)(O)O)C(=O)O (stereo not shown) [APV] | not reversed by D-serine | – | – | – | –
O=c1[nH][nH]c(=O)c2c(O)c3ccc([N+](=O)[O-])cc3nc12 [Example 11, 2,3-Dihydro-10-hydroxy-7-nitropyridazino[4,5-b]quinoline-1,4-dione] | – | 8.5 | over 60% | 86 | –
c1ccc(C2(N3CCCCC3)CCCCC2)cc1 [PCP] | not reversed by D-serine | – | – | – | –
O=c1[nH][nH]c(=O)c2c(O)c3ccc(Cl)cc3nc12 [Example 2, 7-Chloro-2,3-dihydro-10-hydroxypyridazino[4,5-b]quinoline-1,4-dione] | – | 0.24 | Over 70% | 2.1 | antagonism in the hippocampal slice test (inhibition of secondary population spikes) [5]: antagonist; reversal of the inhibition by D-serine [5]: reversed by D-serine
O=C(O)c1cc(O)c2ccc(Cl)cc2n1 [7-chlorokynurenic acid] | reversed by D-serine | – | – | – | inhibition of the secondary PSs [1]: inhibit the secondary PSs
NC1CCN(O)C1=O (stereo not shown) [HA-966] | reversed by D-serine | – | – | – | inhibition of the secondary PSs [1]: inhibit the secondary PSs
C[C@]12N[C@H](Cc3ccccc31)c1ccccc12 [MK-801] | not reversed by D-serine | – | – | – | –
O=C(O)C1CN(CCCP(=O)(O)O)CCN1 (stereo not shown) [CPP] | not reversed by D-serine | – | – | – | –
O=c1[nH][nH]c(=O)c2c(O)c3c(Cl)cc(Cl)cc3nc12 [Example 4, 7,9-Dichloro-2,3-dihydro-10-hydroxypyridazino[4,5-b]quinoline-1,4-dione] | – | 0.08 | Over 70% | 2.3 | –
